From ChEMBL document CHEMBL1140223, “Novel multifunctional acyloxyalkyl ester prodrugs of 5-aminolevulinic acid display improved anticancer activity independent and dependent on photoactivation” (J Med Chem, 2008)
The source made the active and inactive calls. No cut-off for these calls is given here.

How the values were obtained:
[1] = tested on: U-251; test: Inhibition of 26S proteasome activity in human U251 cells at 100 uM after 48 hrs in presence of N-acetyl-L-cysteine relative to control; type: cell-based; details: values are per cent of control
[2] = tested on: U-251; test: Increase in ROS production in human U251 cells at 100 uM after 4 hrs by FACS; type: functional, cell-based
[3] = tested on: U-251; test: Inhibition of 26S proteasome activity in human U251 cells at 0.5 mM after 24 hrs; type: cell-based
[4] = tested on: U-251; test: Inhibition of 26S proteasome activity in human U251 cells at 100 uM after 48 hrs relative to control; type: cell-based; details: values are per cent of control
[5] = tested on: U-251; test: Cytotoxicity against human U251 cells after 72 hrs by Hoechst test; type: functional, cell-based; details: U-251, 72 h
[6] = tested on: U-251; test: Increase in ROS production in human U251 cells at 100 uM after 4 hrs by FACS in presence of N-acetyl-L-cysteine; type: functional, cell-based
[7] = tested on: U-251; test: Increase in heme level in human U251 cells at 100 uM after 48 hrs by Western blot relative to control; type: functional
[8] = tested on: U-251; test: Increase in protoporphyrin 9 levels in human U251 cells at 200 uM after 24 hrs relative to control; type: functional
[9] = tested on: U-251; test: Inhibition of 26S proteasome activity in human U251 cells at 100 uM after 24 hrs relative to control; type: cell-based
[10] = tested on: U-251; test: Increase in ROS production in human U251 cells at 50 uM after 4 hrs by FACS flow cytometry in presence of N-acetyl-L-cysteine; type: functional, cell-based
[11] = tested on: HL-60; test: Cytotoxicity against human HL60 cells after 72 hrs by MTT assay; type: functional, cell-based; details: HL-60, 72 h
[12] = tested on: U-251; test: Induction of apoptosis in human U251 cells assessed as viable cells at 100 uM after 48 hrs using annexin-V FITC and PI staining by flow cytometry; type: functional; details: U-251, 48 h, read-out: Activity
[13] = tested on: U-251; test: Induction of apoptosis in human U251 cells assessed as late apoptotic cells at 100 uM after 48 hrs using annexin-V FITC and PI staining by flow cytometry in presence of Z-Asp-2,6-dichlorobenzoyloxymethylketone; type: functional
[14] = tested on: U-251; test: Increase in protoporphyrin 9 levels in human U251 cells at 100 uM after 24 hrs relative to control; type: functional
[15] = tested on: U-251; test: Cytotoxicity against human U251 cells assessed as ROS production by Hoechst test in presence of N-acetyl-L-cysteine; type: functional, cell-based
[16] = tested on: U-251; test: Induction of necrosis in human U251 cells assessed as necrotic cells at 100 uM after 48 hrs using annexin-V FITC and PI staining by flow cytometry in presence of Ac-LEHD-CHO; type: functional
[17] = tested on: U-251; test: Increase in ROS production in human U251 cells at 50 uM after 4 hrs by FACS flow cytometry; type: functional
[18] = tested on: U-251; test: Induction of apoptosis in human U251 cells assessed as late apoptotic cells at 100 uM after 48 hrs using annexin-V FITC and PI staining by flow cytometry in presence of Ac-LEHD-CHO; type: functional
[19] = tested on: U-251; test: Induction of histone H4 hyperacetylation in human U251 cells at 100 uM after 4 hrs by Western blot relative to control; type: functional
[20] = tested on: U-251; test: Induction of apoptosis in human U251 cells assessed as late apoptotic cells at 100 uM after 48 hrs using annexin-V FITC and PI staining by flow cytometry; type: functional
[21] = tested on: U-251; test: Induction of necrosis in human U251 cells assessed as necrotic cells at 100 uM after 48 hrs using annexin-V FITC and PI staining by flow cytometry in presence of Z-Asp-2,6-dichlorobenzoyloxymethylketone; type: functional
[22] = Cytotoxicity against human MCF7/DX cells after 72 hrs by Hoechst test; type: functional, cell-based
[23] = tested on: MCF7; test: Cytotoxicity against human MCF7 cells after 72 hrs by Hoechst test; type: functional, cell-based; details: MCF7, 72 h
[24] = tested on: U-251; test: Antiproliferative activity against human U251 cells assessed as PpIX release after 72 hrs by Hoechst test; type: functional, cell-based; details: U-251, 72 h
[25] = tested on: U-251; test: Induction of necrosis in human U251 cells assessed as necrotic cells at 100 uM after 48 hrs using annexin-V FITC and PI staining by flow cytometry; type: functional
[26] = tested on: U-251; test: Antiproliferative activity against human U251 cells assessed as PpIX release pretreated 72 hrs before 360-410 nm light photosensitization measured after 48 hrs by Hoechst test; type: functional, cell-based
[27] = tested on: U-251; test: Increase in heme level in human U251 cells assessed as porphobilinogen deaminase level at 100 uM after 2 hrs by Western blot relative to control; type: functional
[28] = tested on: U-251; test: Induction of apoptosis in human U251 cells assessed as viable cells at 100 uM after 48 hrs using annexin-V FITC and PI staining by flow cytometry in presence of Z-Asp-2,6-dichlorobenzoyloxymethylketone; type: functional; details: U-251, 48 h, read-out: Activity
[29] = tested on: U-251; test: Induction of apoptosis in human U251 cells assessed as early apoptotic cells at 100 uM after 48 hrs using annexin-V FITC and PI staining by flow cytometry in presence of Z-Asp-2,6-dichlorobenzoyloxymethylketone; type: functional
[30] = tested on: U-251; test: Increase in CDKp21 expression levels in human U251 cells at 100 uM after 24 hrs by Western blot; type: functional, cell-based
[31] = tested on: U-251; test: Induction of apoptosis in human U251 cells assessed as early apoptotic cells at 100 uM after 48 hrs using annexin-V FITC and PI staining by flow cytometry; type: functional
[32] = tested on: U-251; test: Induction of apoptosis in human U251 cells assessed as early apoptotic cells at 100 uM after 48 hrs using annexin-V FITC and PI staining by flow cytometry in presence of Ac-LEHD-CHO; type: functional
[33] = tested on: U-251; test: Induction of apoptosis in human U251 cells assessed as viable cells at 100 uM after 48 hrs using annexin-V FITC and PI staining by flow cytometry in presence of Ac-LEHD-CHO; type: functional; details: U-251, 48 h, read-out: Activity
[34] = tested on: U-251; test: Increase in heme level in human U251 cells assessed as porphobilinogen deaminase level at 100 uM after 2 hrs by Western blot in presence of cycloheximide; type: functional, cell-based
[35] = tested on: U-251; test: Inhibition of 26S proteasome activity in human U251 cells at 1 mM after 48 hrs; type: cell-based
[36] = tested on: U-251; test: Induction of apoptosis in human U251 cells assessed as increase in full length caspase 8 level after 24 hrs by Western blot; type: functional, cell-based
[37] = tested on: U-251; test: Induction of apoptosis in human U251 cells assessed as increase in cleaved caspase 9 level after 24 hrs by Western blot; type: functional, cell-based
[38] = tested on: U-251; test: Increase in CDKp21 expression levels in human U251 cells at 100 uM after 4 hrs by Western blot; type: functional, cell-based
[39] = tested on: U-251; test: Reduction in c-myc expression levels in human U251 cells at 100 uM after 4 hrs by Western blot; type: functional, cell-based
[40] = tested on: U-251; test: Increase in pERK expression levels in human U251 cells at 100 uM after 2 hrs by Western blot relative to control; type: functional
[41] = tested on: U-251; test: Increase in pH2AX expression levels in human U251 cells at 100 uM after 2 hrs by Western blot; type: functional, cell-based
[42] = tested on: U-251; test: Increase in p-c-Jun expression levels in human U251 cells at 100 uM after 2 hrs by Western blot relative to control; type: functional
[43] = tested on: U-251; test: Induction of apoptosis in human U251 cells assessed as increase in cleaved caspase 3 level after 24 hrs by Western blot; type: functional, cell-based
[44] = tested on: U-251; test: Induction of histone H4 hyperacetylation in human U251 cells at 100 uM after 24 hrs by Western blot relative to control; type: functional
[45] = tested on: U-251; test: Induction of apoptosis in human U251 cells assessed as mitochondrial membrane potential dissipation at 100 uM after 24 hrs using JC1 dye by FACS relative to control; type: functional

Row | SMILES | residual activity [1] [%] | residual activity [4] [%] | IC50 [5] [µM] | Activity [7] [%] | IC50 [11] [µM] | viability at 100 µM [12] [%] | Activity [13] [%] | Activity [16] [%] | Activity [18] [%] | Activity [20] [%] | Activity [21] [%] | IC50 [22] [µM] | IC50 [23] [µM] | Activity [25] [%] | fold change (FC) [27] | viability at 100 µM [28] [%] | Activity [29] [%] | Activity [31] [%] | Activity [32] [%] | viability at 100 µM [33] [%] | also measured
1 | CCCC(=O)O [BUTYRIC ACID] | 80 | 74 | 932 | 126 |  |  |  |  |  |  |  |  |  |  |  |  |  |  |  |  | Activity [2]: Active; Activity [3]: Active; Activity [6]: Active
2 | CCCC(=O)OCOP(=O)(OCC)OCC [(DIETHOXYPHOSPHORYLOXY)METHYL BUTYRATE] |  |  | 89 |  |  |  |  |  |  |  |  |  |  |  |  |  |  |  |  |  | Activity [8]: inactive; Activity [9]: Active; Activity [10]: Active
3 | CCCC(CCC)C(=O)OCOC(=O)CCC(=O)CN |  |  | 64 |  |  |  |  |  |  |  |  |  |  |  |  |  |  |  |  |  | 
4 | CCCC(CCC)C(=O)OC(C)OC(=O)CCC(=O)CN (centres undefined) |  |  | 1040 |  | 780 |  |  |  |  |  |  |  |  |  |  |  |  |  |  |  | 
5 | CCCC(=O)OC(C)OC(=O)CCC(=O)CN.Cl (centres undefined) | 146 | 117 | 728 |  | 274 | 80 | 3 | 8 | 3 | 6 | 7 | 807 | 714 | 10 | 2 | 88 | 2 | 4 | 3 | 86 | fold change (FC) [14]: 5; Activity [15]: Active; fold change (FC) [8]: 7.8; Activity [17]: Active; fold change (FC) [19]: 1.4; IC50 [24]: 767 µM; IC50 [26]: 509 µM; Activity [30]: Active
6 | NCC(=O)CCC(=O)O [AMINOLEVULINIC ACID] | 102 | 100 | 2660 | 130 | 1570 | 76 | 5 | 17 | 3 | 14 | 17 | 3480 | 1740 | 7 | 2 | 76 | 2 | 6 | 2 | 78 | fold change (FC) [14]: 3; fold change (FC) [8]: 7.2; Activity [2]: Active; IC50 [24]: 2720 µM; Activity [34]: Active; IC50 [26]: 2720 µM; Activity [6]: inactive; Activity [35]: Active; Activity [36]: Active
7 | CCCC(=O)OCOC(=O)CCC(=O)CN.Cl | 64 | 56 | 89 | 260 | 57 | 47 | 5 | 15 | 2 | 17 | 11 | 84 | 74 | 19 | 8 | 80 | 4 | 17 | 2 | 81 | fold change (FC) [14]: 6.6; Activity [37]: Active; Activity [15]: Active; fold change (FC) [8]: 12.4; Activity [17]: 68%; Activity [38]: Active; Activity [39]: Active; fold change (FC) [19]: 1.4; IC50 [24]: 99 µM; fold change (FC) [40]: 5.4; Activity [41]: Active; Activity [34]: inactive; IC50 [26]: 59 µM; fold change (FC) [42]: 9.5; Activity [43]: Active; fold change (FC) [44]: 2; inhibition [9]: 40%; fold change (FC) [45]: 2.4; Activity [36]: Active; Activity [10]: Active
8 | CC(C)(C)C(=O)OCOC(=O)CCC(=O)CN.Cl | 101 | 54 | 93 |  | 44 | 67 | 5 | 17 | 4 | 9 | 11 | 61 | 64 | 9 | 2 | 82 | 2 | 15 | 2 | 77 | Activity [37]: Active; Activity [15]: inactive; Activity [19]: inactive; Activity [34]: Active; Activity [43]: Active; fold change (FC) [45]: 3; Activity [36]: Active; Activity [10]: inactive
9 | CC(OC(=O)CCC(=O)CN)OC(=O)C(C)(C)C (centres undefined) |  |  | 2040 |  | 1390 |  |  |  |  |  |  |  |  |  |  |  |  |  |  |  | 
